Results reported in patent US20240083857A1, “2-Methyl-Quinazolines” (Bayer Pharma Aktiengesellschaft, priority 2017, published 2024).
pIC50: −log10 of the molar value. Where two headings read alike, the source gives them in different places.

Legend:
[1] = biological target: human SOS1 (nucleotide exchange of K-Ras^G12C) (Homo sapiens, UniProt Q07889); experiment: Biochemical assay 2: K-Ras^G12C activation assay by hSOS1 at high GTP concentration (HTRF); conditions: high GTP; for pIC50: read-out: Assay 2 (KRAS-Activation by SOS high GTP) activity expressed as IC50
[2] = biological target: Epidermal Growth Factor Receptor (EGFR) (Homo sapiens (Human), UniProt P00533); experiment: EGFR kinase assay (TR-FRET); format: biochemical; conditions: read-out: EGFR kinase inhibition IC50; for pIC50: unit inferred; for IC50: values given in μM
Sequence of Epidermal Growth Factor Receptor (EGFR) (P00533 25-1210): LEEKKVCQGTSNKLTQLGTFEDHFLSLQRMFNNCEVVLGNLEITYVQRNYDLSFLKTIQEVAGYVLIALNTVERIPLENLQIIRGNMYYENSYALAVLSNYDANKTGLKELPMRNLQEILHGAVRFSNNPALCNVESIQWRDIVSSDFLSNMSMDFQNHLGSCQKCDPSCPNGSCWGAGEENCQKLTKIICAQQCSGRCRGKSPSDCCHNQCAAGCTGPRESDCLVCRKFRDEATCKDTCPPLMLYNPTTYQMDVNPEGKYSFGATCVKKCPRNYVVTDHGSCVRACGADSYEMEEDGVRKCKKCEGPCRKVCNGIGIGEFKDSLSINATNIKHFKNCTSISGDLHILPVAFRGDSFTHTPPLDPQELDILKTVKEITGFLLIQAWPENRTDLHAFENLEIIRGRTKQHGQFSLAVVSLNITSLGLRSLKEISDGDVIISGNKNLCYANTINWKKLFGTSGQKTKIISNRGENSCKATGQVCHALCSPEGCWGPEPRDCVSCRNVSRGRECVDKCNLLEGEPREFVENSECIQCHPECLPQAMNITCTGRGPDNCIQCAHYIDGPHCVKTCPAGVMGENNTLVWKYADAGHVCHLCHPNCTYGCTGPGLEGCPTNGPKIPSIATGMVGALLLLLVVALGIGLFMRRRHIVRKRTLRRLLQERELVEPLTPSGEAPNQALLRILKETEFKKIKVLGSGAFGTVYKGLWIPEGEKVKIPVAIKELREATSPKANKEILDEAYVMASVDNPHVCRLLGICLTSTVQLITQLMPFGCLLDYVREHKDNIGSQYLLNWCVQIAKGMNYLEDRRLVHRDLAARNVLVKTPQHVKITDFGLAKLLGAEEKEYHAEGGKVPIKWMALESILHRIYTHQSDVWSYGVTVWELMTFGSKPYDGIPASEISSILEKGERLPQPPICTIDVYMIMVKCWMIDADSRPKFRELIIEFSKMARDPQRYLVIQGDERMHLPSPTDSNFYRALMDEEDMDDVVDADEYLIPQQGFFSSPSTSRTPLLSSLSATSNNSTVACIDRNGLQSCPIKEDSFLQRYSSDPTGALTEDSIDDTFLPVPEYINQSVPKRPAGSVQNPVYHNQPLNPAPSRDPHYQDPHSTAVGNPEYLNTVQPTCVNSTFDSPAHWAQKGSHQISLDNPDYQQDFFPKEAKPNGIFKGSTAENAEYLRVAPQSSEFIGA
How it was run: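 Read-out is the 665/620 nm HTRF ratio, from a Tb-cryptate anti-phosphotyrosine antibody and streptavidin-XL665 bound to phosphorylated biotin-peptide substrate. The enzyme, A431-derived EGFR (~3 U/ml), was given 15 min compound pre-binding at 22° C in Hepes pH 7.0 with Mg2+/Mn2+ before reaction.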

| SMILES | pIC50 [1] | pIC50 [2] | IC50 [2] [µM] | inhibition at 20 µM ([1]; read-out: Assay 2 (KRAS-Activation by SOS high GTP) activity expressed as % inhibition at 20 μM, at 20 μM) [%] |
| --- | --- | --- | --- | --- |
| COc1cc2nc(C)nc(NC(C)c3cccc(Oc4ccccc4)c3)c2cc1OC (single isomer, unassigned; enantiomer 1) [Example 228, 6,7-dimethoxy-2-methyl-N-[1-(3-phenoxyphenyl)ethyl]quinazolin-4-amine, Enantiomer 1] | 6.19 | 6.47 | – | – |
| COc1cc2nc(C)nc(NC(C)c3cccc4cccnc34)c2cc1OC (single isomer, unassigned; enantiomer 1) [Example 230, 6,7-dimethoxy-2-methyl-N-[1-(quinolin-8-yl)ethyl]quinazolin-4-amine, Enantiomer 1] | 5.17 | – | > 20 | – |
| COc1cc2nc(C)nc(N[C@H](C)c3cccc(Cl)c3)c2cc1OC [Example 2, N-[(1R)-1-(3-chlorophenyl)ethyl]-6,7-dimethoxy-2-methylquinazolin-4-amine] | 6.68 | 4.79 | – | – |
| COC(=O)c1cc2c(C(C)Nc3nc(C)nc4cc(OC)c(OC)cc34)cccc2s1 (stereo not shown) [Example 3, methyl 4-{1-[(6,7-dimethoxy-2-methylquinazolin-4-yl)amino]ethyl}-1-benzothiophene-2-carboxylate] | 6.94 | – | > 20 | – |
| COc1cc2nc(C)nc(NC(C)c3cccc4ccoc34)c2cc1OC (stereo not shown) [Example 4, N-[1-(1-benzofuran-7-yl)ethyl]-6,7-dimethoxy-2-methylquinazolin-4-amine] | 6.61 | – | > 20 | – |
| COc1cc2nc(C)nc(NC(C)c3ccc(F)c4[nH]ncc34)c2cc1OC (stereo not shown) [Example 5, N-[1-(7-fluoro-1H-indazol-4-yl)ethyl]-6,7-dimethoxy-2-methylquinazolin-4-amine] | 5.89 | – | > 20 | – |
| COc1cc2nc(C)nc(NC(C)c3cc(F)cc4[nH]ncc34)c2cc1OC (stereo not shown) [Example 6, N-[1-(6-fluoro-1H-indazol-4-yl)ethyl]-6,7-dimethoxy-2-methylquinazolin-4-amine] | 5.73 | – | > 20 | – |
| COc1cc2nc(C)nc(NC(C)c3cccc4cn(C)nc34)c2cc1OC (stereo not shown) [Example 8, 6,7-dimethoxy-2-methyl-N-[1-(2-methyl-2H-indazol-7-yl)ethyl]quinazolin-4-amine] | 4.70 | – | > 20 | – |
| COc1cc2nc(C)nc(NC(C)c3cccc4nn(C)cc34)c2cc1OC (stereo not shown) [Example 9, 6,7-dimethoxy-2-methyl-N-[1-(2-methyl-2H-indazol-4-yl)ethyl]quinazolin-4-amine] | 5.86 | – | > 20 | – |
| COc1cc2nc(C)nc(NC(C)c3cccc4cnn(C)c34)c2cc1OC (stereo not shown) [Example 10, 6,7-dimethoxy-2-methyl-N-[1-(1-methyl-1H-indazol-7-yl)ethyl]quinazolin-4-amine] | 5.90 | – | > 20 | – |
| COc1cc2nc(C)nc(NC(C)c3cccc4c3CCCC4)c2cc1OC (stereo not shown) [Example 11, 6,7-dimethoxy-2-methyl-N-[1-(5,6,7,8-tetrahydronaphthalen-1-yl)ethyl]quinazolin-4-amine] | 6.66 | – | > 20 | – |
| COc1cc2nc(C)nc(N[C@H](C)c3ccc(F)cc3)c2cc1OC [Example 12, N-[(1R)-1-(4-fluorophenyl)ethyl]-6,7-dimethoxy-2-methylquinazolin-4-amine] | 6.24 | – | > 20 | – |
| COc1cc2nc(C)nc(NC(C)c3cccc4[nH]nc(C)c34)c2cc1OC (stereo not shown) [Example 13, 6,7-dimethoxy-2-methyl-N-[1-(3-methyl-1H-indazol-4-yl)ethyl]quinazolin-4-amine] | 5.58 | – | > 20 | – |
| COc1cc2nc(C)nc(NC(C)c3cc4cccc(O)c4o3)c2cc1OC (stereo not shown) [Example 28, 2-{-[(6,7-dimethoxy-2-methyquinazolin-4-yl)amino]ethyl}-1-benzofuran-7-ol] | – | – | > 20 | 8 |
| COC(=O)c1ccccc1-c1ccc(C(C)Nc2nc(C)nc3cc(OC)c(OC)cc23)s1 (stereo not shown) [Example 178, methyl 2-(5-{1-[(6,7-dimethoxy-2-methylquinazolin-4-yl)amino]ethyl}thiophen-2-yl)benzoate] | 5.29 | – | > 20 | – |
| COc1cc2nc(C)nc(NC(C)c3ccc(-c4ccccc4CN4CCC(C(N)=O)CC4)s3)c2cc1OC (stereo not shown) [Example 179, 1-[2-(5-{1-[(6,7-dimethoxy-2-methylquinazolin-4-yl)amino]ethyl}thiophen-2-yl)benzyl]piperidine-4-carboxamide] | 6.61 | – | > 20 | – |
| COc1cc2nc(C)nc(NC(C)c3ccc(-c4ccccc4CCO)s3)c2cc1OC (stereo not shown) [Example 180, 2-[2-(5-{1-[(6,7-dimethoxy-2-methylquinazolin-4-yl)amino]ethyl}thiophen-2-yl)phenyl]ethanol] | 6.04 | – | > 20 | – |
| COc1cc2nc(C)nc(NC(C)c3ccc(-c4cccc(CCO)c4)s3)c2cc1OC (stereo not shown) [Example 181, 2-[3-(5-{1-[(6,7-dimethoxy-2-methylquinazolin-4-yl)amino]ethyl}thiophen-2-yl)phenyl]ethanol] | 5.19 | – | > 20 | – |

| SMILES | pIC50 [1] | pIC50 [2] | IC50 [2] [µM] | inhibition at 20 µM ([1]; read-out: Assay 2 (KRAS-Activation by SOS high GTP) activity expressed as % inhibition at 20 μM, at 20 μM) [%] |
| --- | --- | --- | --- | --- |
| COc1cc2nc(C)nc(NC(C)c3ccc(-c4ccccc4CN4CC5(COC5)C4)s3)c2cc1OC (stereo not shown) [Example 182, 6,7-di methoxy-2-methyl-N-[1-{5-[2-(2-oxa-6-azaspiro[3.3]hept-6-ylmethyl)phenyl]thiophen-2-yl}ethyl]quinazolin-4-amine] | 6.91 | – | > 20 | – |
| COc1cc2nc(C)nc(NC(C)c3cc(C)c(Br)s3)c2cc1OC (stereo not shown) [Example 183, N-[1-(5-bromo-4-methylthiophen-2-yl)ethyl]-6,7-dimethoxy-2-methylquinazolin-4-amine] | 5.38 | – | > 20 | – |
| COc1cc2nc(C)nc(NC(C)c3ccc(-c4ccccc4CN4CCCC4)s3)c2cc1OC (stereo not shown) [Example 184, 6,7-dimethoxy-2-methyl-N-[1-{5-[2-(pyrrolidin-1-ylmethyl)phenyl]thiophen-2-yl}ethyl]quinazolin-4-amine] | 6.97 | – | > 20 | – |
| COc1cc2nc(C)nc(NC(C)c3ccc(-c4ccccc4CN4CCC[C@H]4CN(C)C)s3)c2cc1OC (stereo partly drawn) [Example 185, N-[1-{5-[2-({(2S)-[(dimethylamino)methyl]pyrrolidin-1-yl}methyl)phenyl]thiophen-2-yl}ethyl]-6,7-dimethoxy-2-methylquinazolin-4-amine] | 6.46 | – | > 20 | – |
| Cc1nc(N[C@H](C)c2cccc3ccccc23)c2ccccc2n1 [Example 186, 2-methyl-N-[(1R)-1-(naphthalen-1-yl)ethyl]quinazolin-4-amine] | 5.48 | – | > 20 | – |
| COc1cc2nc(C)nc(N[C@H](C)c3ccc(Br)cc3)c2cc1OC [Example 187, N-[(1R)-1-(4-bromophenyl)ethyl]-6,7-dimethoxy-2-methylquinazolin-4-amine] | 6.25 | – | > 20 | – |
| COc1cc2nc(C)nc(N[C@H](C)c3ccc(S(C)(=O)=O)cc3)c2cc1OC [Example 188, 6,7-dimethoxy-2-methyl-N-{(1R)-1-[4-(methylsulfonyl)phenyl]ethyl}quinazolin-4-amine] | 4.78 | – | > 20 | – |
| COc1cc2nc(C)nc(N[C@H](C)c3cccc(C)c3)c2cc1OC [Example 190, 6,7-dimethoxy-2-methyl-N-[(1R)-1-(3-methylphenyl)ethyl]quinazolin-4-amine] | 6.82 | – | > 20 | – |
| COc1cc2nc(C)nc(N[C@H](C)c3cccc(Br)c3)c2cc1OC [Example 191, N-[(1R)-1-(3-bromophenyl)ethyl]-6,7-dimethoxy-2-methylquinazolin-4-amine] | 6.61 | – | > 20 | – |
| COc1cc2nc(C)nc(N[C@H](C)c3ccc(C(N)=O)cc3)c2cc1OC [Example 192, 4-{(1R)-1-[(6,7-dimethoxy-2-methylquinazolin-4-yl)amino]ethyl}benzamide] | 5.39 | – | > 20 | – |
| COc1cc2nc(C)nc(N[C@H](C)c3cccc(-c4ccccc4)c3)c2cc1OC [Example 193, N-[(1R)-1-(biphenyl-3-yl)ethyl]-6,7-dimethoxy-2-methylquinazolin-4-amine] | 6.39 | – | > 20 | – |
| COc1cc2nc(C)nc(N[C@H](C)c3cccc(C#N)c3)c2cc1OC [Example 194, 3-{(1R)-1-[(6,7-dimethoxy-2-methylquinazolin-4-yl)amino]ethyl}benzonitrile] | 6.23 | – | > 20 | – |
| COc1cc2nc(C)nc(N[C@H](C)c3ccc(C)cc3)c2cc1OC [Example 195, 6,7-dimethoxy-2-methyl-N-[(1R)-1-(4-methylphenyl)ethyl]quinazolin-4-amine] | 6.20 | – | > 20 | – |
| COc1cc2nc(C)nc(N[C@H](C)c3ccc(-c4ccccc4)cc3)c2cc1OC [Example 196, N-[(1R)-1-(biphenyl-4-yl)ethyl]-6,7-dimethoxy-2-methylquinazolin-4-amine] | 5.96 | – | > 20 | – |
| COc1cc2nc(C)nc(N[C@H](C)c3ccc(C4CC4)cc3)c2cc1OC [Example 197, N-[(1R)-1-(4-cyclopropylphenyl)ethyl]-6,7-dimethoxy-2-methylquinazolin-4-amine] | 6.52 | – | > 20 | – |
| COc1cc2nc(C)nc(N[C@H](C)c3cccc(S(C)(=O)=O)c3)c2cc1OC [Example 198, 6,7-dimethoxy-2-methyl-N-{(1R)-1-[3-(methylsulfonyl)phenyl]ethyl}quinazolin-4-amine] | 6.29 | – | > 20 | – |
| COc1cc2nc(C)nc(N[C@H](C)c3cccc(C(N)=O)c3)c2cc1OC [Example 199, 3-{(1R)-1-[(6,7-dimethoxy-2-methylquinazolin-4-yl)amino]ethyl}benzamide] | 5.85 | – | > 20 | – |
